The source of these data is ChEMBL document CHEMBL1926670, “1,2-Benzothiazine 1,1-dioxide carboxylate derivatives as novel potent inhibitors of aldose reductase” (Bioorg Med Chem, 2011).

Assay [1] addresses Aldo-keto reductase family 1 member B1 (Rattus norvegicus, UniProt P07943). The experiment in a line: Inhibition of Wistar rat lens ALR2 using D,L-glyceraldehyde as substrate after 10 mins by UV/VIS double spectrophotometric analysis. In kind it is tissue-based, Lens of camera-type eye.
Assay [2] deals with Aldo-keto reductase family 1 member A1 (Rattus norvegicus, UniProt P51635). The experiment in a line: Inhibition of Wistar rat kidney ALR1 using D-glucuronate as substrate after 10 mins by UV/VIS double spectrophotometric analysis.
Chain of Aldo-keto reductase family 1 member A1 (P51635 whole entry, looked up): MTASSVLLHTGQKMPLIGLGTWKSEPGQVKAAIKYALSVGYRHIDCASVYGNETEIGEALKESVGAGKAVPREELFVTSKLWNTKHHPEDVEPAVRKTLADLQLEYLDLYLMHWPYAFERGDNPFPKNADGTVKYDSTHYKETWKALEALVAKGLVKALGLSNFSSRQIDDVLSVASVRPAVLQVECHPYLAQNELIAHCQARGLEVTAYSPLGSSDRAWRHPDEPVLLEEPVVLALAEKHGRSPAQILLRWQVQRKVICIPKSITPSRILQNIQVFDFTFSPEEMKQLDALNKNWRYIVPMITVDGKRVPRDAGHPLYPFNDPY
Assay [3] has as its target Aldo-keto reductase family 1 member B1 (Rattus norvegicus) (UniProt P07943). The experiment in a line: Inhibition of Wistar rat lens ALR2 using D,L-glyceraldehyde as substrate at 10 uM after 10 mins by UV/VIS double spectrophotometric analysis. In kind it is tissue-based. The following applies: Lens of camera-type eye.

Molecules are shown by their SMILES. Where only a bound is given, the exact number is not on record here.

What is called IC50 is the concentration needed to halve the response being measured. The low end stands for inhibition by little substance, the high end for a need for much substance. By inhibition is commonly meant the drop in the measured response relative to a control, in per cent. Low values mean a weak effect, high ones a strong effect.

For the molecule `O=C(O)/C=C1\CN(Cc2cc(F)c(F)cc2F)S(=O)(=O)c2ccccc21` (mixture of isomers), the results for the IC50 in assay [1] and in assay [2] were 590 nM and greater than 10000 nM, respectively.

In assay [1], `O=C(O)/C=C1\CN(Cc2ccc(C(F)(F)F)cc2)S(=O)(=O)c2ccccc21` (mixture of isomers) showed an IC50 of 6130 nM.

Regarding `O=C(O)/C=C1\CN(Cc2ccc(Br)cc2F)S(=O)(=O)c2ccccc21` (mixture of isomers), the IC50 in assay [1] is 110 nM; in assay [2], greater than 10000 nM.

On to `O=C(O)/C=C1\CN(Cc2cccc([N+](=O)[O-])c2)S(=O)(=O)c2ccccc21` (mixture of isomers), for which the IC50 in assay [1] was 140 nM; in assay [2] it was greater than 10000 nM.

The molecule `O=C(O)/C=C1\CN(Cc2ccccc2F)S(=O)(=O)c2ccccc21` (mixture of isomers) yielded an IC50 in assay [1] of 2130 nM.

As to `O=C(O)/C=C1\CN(Cc2cc(C(F)(F)F)cc(C(F)(F)F)c2)S(=O)(=O)c2ccccc21` (mixture of isomers), in assay [3], the inhibition is 32%.

Take `O=C(O)CC1CN(Cc2cc(F)c(F)cc2F)S(=O)(=O)c2ccccc21` (racemic): the IC50 in assay [1] was 340 nM; in assay [2] it was greater than 10000 nM.

Molecule `O=C(O)CC1CN(Cc2cc(C(F)(F)F)cc(C(F)(F)F)c2)S(=O)(=O)c2ccccc21` (racemic) gave a 50% inhibitory concentration (IC50) in assay [1] of 10400 nM.

The molecule `O=C(O)CC1CN(Cc2ccc(C(F)(F)F)cc2)S(=O)(=O)c2ccccc21` (racemic) gave an IC50 in assay [1] of 5300 nM.

Consider `O=C(O)CC1CN(Cc2ccccc2F)S(=O)(=O)c2ccccc21` (racemic), for which the IC50 in assay [1] amounted to 1730 nM.
